{"source": "patent US20240327392A1", "about": "“HETEROCYCLOALKYL-SUBSTITUTED POLYHETEROAZOLE DERIVATIVES AS MEDICAMENTS FOR TREATING AND/OR PREVENTING RS VIRUS INFECTIONS” (ALBIUS SCIENCES ALPHA PRIVATE LIMITED, priority 2021, published 2024)", "data": [{"tested_on": "human RS virus A2 strain", "assay": "In vitro test for anti-RS virus proliferation inhibitory activity (quantitative RT-PCR of RS virus RNA copy number in infected Vero cells)", "format": "cell-based", "details": "72 h; Vero cells infected with human RS virus A2 strain, 3 days of incubation, RS virus N gene RNA copy number by quantitative RT-PCR; read-out: Anti-RS virus Activity", "experimental": "(§1) A mixture of Vero cells (3.4×10^5 cells/mL) and human RS virus A2 strain (1.7×10^4 TCID50/mL) (EMEM medium supplemented with 10% FCS) was added to a 96-well plate at 50 μL/well, and the 10% FCS-supplemented EMEM medium adjusted to the desired final concentration of the compounds to be tested was added at 50 μL/well, followed by incubating the plate at 37° C. in the presence of 5% CO2 at 37° C. After 3 days of incubation, the supernatant was removed, the cells were washed with PBS(−), and the cell lysis buffer supplied with the SingleShot (registered trademark) Cell Lysis Kit (Bio-Rad) was added dropwise at 50 μL/well to lysis the cells thereby providing the cell lysate.\n(§2) Human RS virus RNA copy number in the cell lysate was determined by quantitative RT-PCR using iTaq Universal SYBR Green One-Step Kit (Bio-Rad). Specifically, primers targeting human RS virus N gene (Rameix-Welti et al, Nat Commun5: 5104, 2014. doi: 10.1038/ncomms6104) was used to prepare the reaction solution according to the instructions provided with the kit, and a 96-well PikoReal Real-Time PCR System (TCR0096, Thermo Fisher Scientific) was used to detect PCR reaction and signal assay.\n(§3) The copy number was calculated by the relative method using the comparative Ct method using compound-free virus-infected cells as controls.", "units": {"IC50": "µM"}, "values": [{"smiles": "O=S(=O)(Cc1ccccc1)N1C[C@H](O)C[C@H]1c1nc(CCCc2ccccc2)no1", "note": "[Compound 3E, 3-(3-phenylpropyl)-5-[(2S,4R)-1-benzylsulfonyl-4-hydroxypyrrolidin-2-yl]-1,2,4-oxadiazole]", "IC50": "10 to 50"}, {"smiles": "CC(C)CS(=O)(=O)N1CCC[C@H]1c1nc(CCCc2ccccc2)no1", "note": "[Compound 1A, 3-(3-phenylpropyl)-5-[(2S)-1-isobutylsulfonylpyrrolidin-2-yl]-1,2,4-oxadiazole]", "IC50": "> 50"}]}, {"tested_on": "human RS virus A2 strain", "assay": "In vitro test for anti-RS virus proliferation inhibitory activity (quantitative RT-PCR of RS virus RNA copy number in infected Vero cells)", "format": "cell-based", "details": "72 h; Vero cells infected with human RS virus A2 strain, 3 days of incubation, RS virus RNA copy number by quantitative RT-PCR; read-out: Anti-RS virus Activity", "experimental": "as §1, §2, §3", "units": {"IC50": "µM"}, "values": [{"smiles": "O=C(Cc1ccccc1)N1CCCC[C@H]1c1nc(CCCc2ccccc2)no1", "note": "[Compound 2P, (S)-2-Phenyl-1-(2-(3-(3-phenylpropyl)-1,2,4-oxadiazol-5-yl)piperidin-1-yl)ethan-1-one]", "IC50": "< 10"}, {"smiles": "CC(C)(C)OC(=O)N1[C@@H]2CC[C@@H](C2)[C@H]1c1nnc(Cc2c[nH]c3ccccc23)[nH]1", "note": "[Compound 24-1, Tert-butyl (1R,3S,4S)-3-(5-((1H-indol-3-yl)methyl)-4H-1,2,4-triazol-3-yl)-2-azabicyclo[2.2.1]heptane-2-carboxylate]", "IC50": "10 to 50"}, {"smiles": "CC(=O)N1CCC[C@H]1c1nc(CCCc2ccccc2)no1", "note": "[Compound 1R]", "IC50": "10 to 50"}, {"smiles": "O=C(NCc1noc([C@@H]2C[C@@H](c3ccccc3)CN2S(=O)(=O)c2ccc(F)cc2)n1)c1ccc2ccccc2n1", "note": "[Compound 45AJ, N-((5-((2S,4S)-1-((4-fluorophenyl)sulfonyl)-4-phenylpyrrolidin-2-yl)-1,2,4-oxadiazol-3-yl)methyl)quinoline-2-carboxamide]", "IC50": "10 to 50"}, {"smiles": "CC(C)(C)OC(=O)N1C[C@H]2CC[C@]1(c1nc(CCc3ccccc3)no1)CC2", "note": "[Compound 15-1, Tert-butyl (1s,4s)-1-(3-phenethyl-1,2,4-oxadiazol-5-yl)-2-azabicyclo[2.2.2]octane-2-carboxylate]", "IC50": "10 to 50"}, {"smiles": "CC(C)(C)OC(=O)N1C[C@H](F)C[C@H]1c1nc(CCCc2ccccc2)no1", "note": "[Compound 8-1, 3-(3-phenylpropyl)-5-[(2S,4R)-1-tert-butoxycarbonyl-4-fluoropyrrolidin-2-yl]-1,2,4-oxadiazole]", "IC50": "< 10"}, {"smiles": "CCOC(=O)C1CCN(S(=O)(=O)N2CCCC[C@H]2c2nc(CCCc3ccccc3)no2)CC1", "note": "[Compound 2AC, Ethyl (S)-1-((2-(3-(3-phenylpropyl)-1,2,4-oxadiazol-5-yl)piperidin-1-yl)sulfonyl)piperidine-4-carboxylate]", "IC50": "10 to 50"}, {"smiles": "CC(C)CS(=O)(=O)N1C[C@H](F)C[C@H]1c1nc(CCCc2ccccc2)no1", "note": "[Compound 8A, 3-(3-phenylpropyl)-5-[(2S,4R)-1-isobutylsulfonyl-4-fluoropyrrolidin-2-yl]-1,2,4-oxadiazole]", "IC50": "10 to 50"}, {"smiles": "O=C(NCc1noc([C@@H]2CCCN2S(=O)(=O)C2CCCCC2)n1)c1cccc2ccccc12", "note": "[Compound 11B, 3-[(1-naphthoylamino)methyl]-5-[(2S)-1-cyclohexylsulfonylpyrrolidin-2-yl]-1,2,4-oxadiazole]", "IC50": "10 to 50"}, {"smiles": "CC(C)(C)[S+]([O-])N1CCCC[C@H]1c1nc(CCCc2ccccc2)no1", "note": "(single isomer, unassigned) [2W′]", "IC50": "10 to 50"}, {"smiles": "O=S(=O)(Cc1ccccc1)N1C[C@H](F)C[C@H]1c1nc(CCCc2ccccc2)no1", "note": "[Compound 8E, 3-(3-phenylpropyl)-5-[(2S,4R)-1-benzylsulfonyl-4-fluoropyrrolidin-2-yl]-1,2,4-oxadiazole]", "IC50": "< 10"}, {"smiles": "CC(C)(C)OC(=O)N1C[C@H](c2ccccc2)C[C@H]1c1nc(CCCCCc2ccccc2)no1", "note": "[Compound C5-7-1, Tert-butyl (2S,4S)-4-phenyl-2-(3-(5-phenylpentyl)-1,2,4-oxadiazol-5-yl)pyrrolidine-1-carboxylate]", "IC50": "< 10"}, {"smiles": "CC(C)(C)S(=O)(=O)N1CCCC[C@H]1c1nc(CCCc2ccccc2)no1", "note": "[Compound 2X, (S)-5-(1-(tert-butylsulfonyl)piperidin-2-yl)-3-(3-phenylpropyl)-1,2,4-oxadiazole]", "IC50": "< 10"}, {"smiles": "O=C(NCc1noc([C@@H]2CCCCN2S(=O)(=O)C2CCCCC2)n1)c1ccc2c(c1)OCO2", "note": "[Compound 21B, (S)—N-((5-(1-(cyclohexylsulfonyl)piperidin-2-yl)-1,2,4-oxadiazol-3-yl)methyl)benzo[d][1,3]dioxol-5-carboxamide]", "IC50": "> 50"}, {"smiles": "O=S(=O)(C1CCOCC1)N1C[C@H](c2ccccc2)C[C@H]1c1nc(CCCc2ccccc2)no1", "note": "[Compound 7AP, 5-((2S,4S)-4-phenyl1-((tetrahydro-2H-pyran-4-yl)sulfonyl)pyrrolidin-2-yl)-3-(3-phenylpropyl)-1,2,4-oxadiazole]", "IC50": "< 10"}, {"smiles": "O=C(Oc1ccccc1)N1CCC[C@H]1c1nc(CCCc2ccccc2)no1", "note": "[Compound 1M, Phenyl (S)-2-(3-(3-phenylpropyl)-1,2,4-oxadiazol-5-yl)pyrrolidine-1-carboxylate]", "IC50": "10 to 50"}, {"smiles": "O=S(=O)(N1CCCCC1)N1C[C@H](c2ccccc2)C[C@H]1c1nc(CCCc2ccccc2)no1", "note": "[Compound 7AD]", "IC50": "10 to 50"}, {"smiles": "O=S(=O)(Cc1ccccc1)N1CC(c2ccccc2)C[C@H]1c1nc(CCCc2ccccc2)no1", "note": "(stereo in doubt) [Compound 7E, 3-(3-Phenylpropyl)-5-[(2S,4S)-1-benzylsulfonyl-4-phenylpyrrolidin-2-yl]-1,2,4-oxadiazole]", "IC50": "> 50"}, {"smiles": "CC(C)(C)OC(=O)N1CCCC[C@H]1c1nnc(CCCc2ccccc2)o1", "note": "[Compound 18-1, Tert-butyl (S)-2-(5-(3-phenylpropyl)-1,3,4-oxadiazol-2-yl) piperidine-1-carboxylate]", "IC50": "< 10"}, {"smiles": "O=S(=O)(C1CCOCC1)N1CC2(CC2)C[C@H]1c1nc(CCCc2ccccc2)no1", "note": "[Compound 5AP, (S)-3-(3-phenylpropyl)-5-(5-((tetrahydro-2H-pyran-4-yl)sulfonyl)-5-azaspiro[2.4]heptan-6-yl)-1,2,4-oxadiazole]", "IC50": "10 to 50"}, {"smiles": "COc1ccc(S(=O)(=O)N2C[C@H](c3ccccc3)C[C@H]2c2nc(CCCc3ccccc3)no2)cc1", "note": "[Compound 7AI, 5-((2S,4S)-1-((4-methoxyphenyl)sulfonyl)-4-phenylpyrrolidin-2-yl)-3-(3-phenylpropyl)-1,2,4-oxadiazole]", "IC50": "< 10"}, {"smiles": "CC(C)(C)OC(=O)N1C[C@H](c2ccccc2)C[C@H]1c1nc(Cc2ccccc2)no1", "note": "[Compound C1-7-1, Tert-butyl (2S,4S)-2-(3-benzyl-1,2,4-oxadiazol-5-yl)-4-phenylpyrrolidine-1-carboxylate]", "IC50": "< 10"}, {"smiles": "c1ccc(CCCc2noc([C@@H]3CCCCN3CC3CCCCC3)n2)cc1", "note": "[Compound 2U, (S)-5-(1-(cyclohexylmethyl)piperidin-2-yl)-3-(3-phenylpropyl)-1,2,4-oxadiazole]", "IC50": "< 10"}, {"smiles": "O=S(=O)(N1CCOCC1)N1CCCC[C@H]1c1nc(CCCc2ccccc2)no1", "note": "[Compound 2AE, (S)-4-((2-(3-(3-phenylpropyl)-1,2,4-oxadiazol-5-yl)piperidin-1-yl)sulfonyl)morpholine]", "IC50": "< 10"}, {"smiles": "CC(C)OC(=O)N1CCC[C@H]1c1nc(CCCc2ccccc2)no1", "note": "[Compound 1L, Isopropyl (S)-2-(3-(3-phenylpropyl)-1,2,4-oxadiazol-5-yl) pyrrolidine-1-carboxylate]", "IC50": "10 to 50"}, {"smiles": "CC(C)(C)NC(=O)N1[C@@H]2CC[C@@H](C2)[C@H]1c1nnc(Cc2c[nH]c3ccccc23)[nH]1", "note": "[Compound 24H, (1R,3S,4S)-3-(5-((1H-indol-3-yl)methyl)-4H-1,2,4-triazol-3-yl)-N-(tert-butyl)-2-azabicyclo[2.2.1]heptane-2-carboxamide]", "IC50": "10 to 50"}, {"smiles": "Cc1sc([C@@H]2CCCCN2S(=O)(=O)C2CCCCC2)nc1C(=O)NCc1ccccc1", "note": "[Compound 37B, (S)—N-Benzyl-2-(1-(cyclohexylsulfonyl)piperidin-2-yl)-5-methylthiazole-4-carboxamide]", "IC50": "< 10"}, {"smiles": "O=C(NCc1cnc2ccccc2c1)N1[C@@H]2CC[C@@H](C2)[C@H]1c1nnc(Cc2cc3ccccc3[nH]2)[nH]1", "note": "[Compound 28AH]", "IC50": "10 to 50"}, {"smiles": "O=C(NCc1ccccc1)N1[C@@H]2CC[C@@H](C2)[C@H]1c1nnc(Cc2c[nH]c3ccccc23)[nH]1", "note": "[Compound 24F, (1R,3S,4S)-3-(5-((1H-indol-3-yl)methyl)-4H-1,2,4-triazol-3-yl)-N-benzyl-2-azabicyclo[2.2.1]heptane-2-carboxamide]", "IC50": "10 to 50"}, {"smiles": "CC(C)(C)OC(=O)N1CCCC[C@H]1c1nc(CCc2ccncc2)no1", "note": "[Compound 12-1, Tert-butyl (S)-2-(3-(2-(pyridin-4-yl)ethyl)-1,2,4-oxadiazol-5-yl)piperidine-1-carboxylate]", "IC50": "< 10"}, {"smiles": "c1ccc(CCCc2noc([C@@H]3CCCN3CC3CCCCC3)n2)cc1", "note": "[Compound 1U, (S)-5-(1-(cyclohexylmethyl)pyrrolidin-2-yl)-3-(3-phenylpropyl)-1,2,4-oxadiazole]", "IC50": "< 10"}]}, {"tested_on": "human RS virus A2 strain", "assay": "In vitro test for anti-RS virus proliferation inhibitory activity (quantitative RT-PCR of RS virus RNA copy number in infected Vero cells)", "format": "cell-based", "details": "Vero, 72 h, read-out: Anti-RS virus Activity", "experimental": "as §1, §2, §3", "units": {"IC50": "µM"}, "values": [{"smiles": "S=C(Nc1ccccc1)N1C[C@H](c2ccccc2)C[C@H]1c1nc(CCCc2ccccc2)no1", "note": "[Compound 7AQ, (2S,4S)—N,4-di phenyl-2-(3-(3-phenylpropyl)-1,2,4-oxadiazol-5-yl) pyrrolidine-1-carbothioamide]", "IC50": "10 to 50"}]}]}
